# In patent publication US5514648A, “Fungicidally active compounds” (priority 1990, dated 1996):
# Where a SMILES comes first, the peptide text is derived from it. [ ]: non-standard residue; d: D form. NMeI = CC[C@H](C)[C@H](NC)C(=O)O; NMeD = CN[C@@H](CC(=O)O)C(=O)O; NMeV = CN[C@H](C(=O)O)C(C)C; Pip = O=C(O)[C@@H]1CCCCN1; dLac = C[C@@H](O)C(=O)O
# How the values were obtained:
# V. inequalis = assay: Fungicidal activity, mycelial growth on potato dextrose agar; assay type: cell-based, Venturia inequalis; conditions: in as low concentrations as 0.0016 μg/ml, 3 to 6 days
# Description: (§1) Experiments were carried out to determine the potency of the compound of formula IV towards various fungi. The active ingredient was dissolved in 60% ethanol and added to cooled potato dextrose agar to give final concentrations of 25, 5, 1, 0.2, 0.04 and 0.0016 μg a.i. per ml agar, respectively. Control dishes contained no active ingredient.
# (§2) 10 ml Agar was poured into 9 cm petri dishes and each concentration was inoculated with actively growing mycelium of the fungal isolates tested for. The dishes were incubated at the optimum temperature for growth of the isolates for 3 to 6 days after which time the growth was measured in mm and compared to the controls.
# (§3) The test isolates covered a broad range of fungi within the Oomycetes, the Ascomycetes, the Basidiornycetes, the Deuterornycetes, and the Zygomycetes.
# [1] = tested on: Botrytis cinerea isolate B (resistant to BENLATE®, ROVRAL® and SUMISCLEX®); assay: In vitro agar growth assay, fungicide resistant Botrytis cinerea; assay type: cell-based; conditions: 3 days, 25 C, control 80
# Description: (§4) Activity against fungicide resistant Botrytis cinerea isolates One isolate resistant to BENLATE® (isolate A), and one isolate resistant to BENLATE®,ROVRAL® and SUMISCLEX® (isolate B) were isolated from plants which had been sprayed with the above mentioned pesticides. The effect of BK 202 on these isolates was determined in an in vitro assay and compared with the three commercial pesticides. The fungicides were added to agar and dispensed in petri dishes at different concentrations and were inoculated with a sensitive (normal(isolate C)) and the two resistant strains. After 3 days at a temperature of 25 C growth was measured in mm.
# [2] = tested on: Botrytis cinerea isolate A (resistant to BENLATE®); assay: as above; assay type: cell-based; conditions: 3 days, 25 C, control 76
# Description: as §4
# Ames spot tests = assay type: cell-based; conditions: crystalline compound
# From the text: (§5) The toxicity of BK 202 was investigated in the following tests using the compound of formula IV in crystaline form: […]
# (§6) Ames spot tests and in vitro testing of dermal irritation (Skintex®).
# M. fructigena = assay: Fungicidal activity, mycelial growth on potato dextrose agar; assay type: cell-based, Monilinia fructigena; conditions: in as low concentrations as 0.0016 μg/ml, 3 to 6 days
# Description: as §1, §2, §3
# C. beticola = assay: as above; assay type: cell-based, Cercospora beticola; conditions: 25 to 0.0016 μg a.i. per ml agar, 3 to 6 days
# Description: as §1, §2, §3
# B. cinerea = assay: as above; assay type: cell-based, Botrytis cinerea; conditions: in as low concentrations as 0.0016 μg/ml, 3 to 6 days
# Description: as §1, §2, §3
# [3] = in vitro testing of dermal irritation (Skintex)
# From the text: as §5, §6
# Zygomycetous species = assay: Fungicidal activity, mycelial growth on potato dextrose agar; assay type: cell-based, Zygomycetes; conditions: 25 to 0.0016 μg a.i. per ml agar
# Description: as §1, §2, §3
# Basidiornycetous species = assay: as above; assay type: cell-based, Basidiornycetes; conditions: 25 to 0.0016 μg a.i. per ml agar
# Description: as §1, §2, §3
# Ascomycetous species = assay: as above; assay type: cell-based, Ascomycetes; conditions: 25 to 0.0016 μg a.i. per ml agar
# Description: as §1, §2, §3
# [4] = Temperature and pH stability (HPLC); assay type: physicochemical; conditions: buffer, 16 hours
# Description: Procedure: The compound BK202 was solubilized in buffer at the pHs indicated in FIG. 1, and then placed at 25°-55° C. for 16 hours. The buffers used were phosphate-citrate (T. C. McIlvaine, J. Biol. Chem. 49,183(1921), in the pH range 2.5-7 and from pH 7-9.5 is used TRIS 0.05 M. After 16 hours, the samples were filtered on a membrane filter 0.45 μm, and then analyzed by the HPLC method.
# However, this may reside in experimental error.
# Column: Spherisorb Hexyl 5 μm, 140 mm×4.6 mm
# Eluent: 55% Acetonitrile +0.1% Trifluor acetic Acid
# Retention time: ca. 6.3 minutes
# Botrytis cinerea = assay: Activity against Botrytis cinerea on tomato plants; assay type: in vivo; conditions: liquid suspension 0.035 mg active ingredient per ml; inoculated after 24 hours; 6 days incubation; controls all overgrown
# Description: Tomato plants (variety "First in Field", 3 weeks old) were treated with a liquid suspension containing 0.035 mg active ingredient per ml. The plants were kept 24 hours in a green house to dry before they were inoculated with a spore suspension containing 10^5 Botrytis cinerea spores per ml in 25% grapefruit juice. […] Control plants that were treated as above except for the application of the active ingredient in suspension were all overgrown with Botrytis cinerea.
# F. lycopersici = assay: Fungicidal activity, mycelial growth on potato dextrose agar; assay type: cell-based, Fusarium lycopersici; conditions: 25 to 0.0016 μg a.i. per ml agar, 3 to 6 days
# Description: as §1, §2, §3
# Monilinia fructigena = assay: Activity against Monilinia fructigena on apples (Golden Delicious); assay type: in vivo; conditions: for number of infected wounds (maximum 20): 5 days, 0 mg ai/l gives 20
# Description: Apples were surface sterilized, each punctured 5 times with a nail 2.1 mm in diameter, dipped in suspensions containing 0, 0.5, 5, 50, and 500 mg a.i. per 1. The active ingredient was (i) BK 202, (ii) benomyI(BENLATE®), (iii) iprodione(ROVRAL®). Four apples were punctured and treated with each concentration of the three pesticides giving a total of 20 wounds per concentration. The fruits were placed in plastic containers in rows with the wounds facing upwards. After 24 hours, the wounded areas were sprayed with a suspension of Monilinia fructigena containing 1×10^5 spores per ml. The containers were then covered with polyethylene bags and kept at room temperature (approximately22° C.).
# After 5 days the effects were assessed by counting the number of infected wounds (maximum 20 infected wounds per treatment).
# plants = assay: Phytotoxic activity on plants; assay type: in vivo; conditions: at the concentrations used in Examples 1 to 7
# A. pisi = assay: Fungicidal activity, mycelial growth on potato dextrose agar; assay type: cell-based, Ascochyta pisi; conditions: in as low concentrations as 0.0016 μg/ml, 3 to 6 days
# Description: as §1, §2, §3
# A. alternata = assay: as above; assay type: cell-based, Alternaria alternata; conditions: 25 to 0.0016 μg a.i. per ml agar, 3 to 6 days
# Description: as §1, §2, §3
# [5] = tested on: Botrytis cinerea isolate C (sensitive, normal); assay: In vitro agar growth assay, sensitive Botrytis cinerea; assay type: cell-based; conditions: 3 days, 25 C, control 74
# Description: as §4
# [6] = Toxicology IC50, Chemiluminescent; conditions: estimated
# Description: Based on these tests the IC50 values for BK 202 were estimated as: Chemiluminescent >10 μg/ml
# Deuterornycetous species = assay: Fungicidal activity, mycelial growth on potato dextrose agar; assay type: cell-based, Deuterornycetes; conditions: 25 to 0.0016 μg a.i. per ml agar
# Description: as §1, §2, §3
# S. sclerotiorum = assay: as above; assay type: cell-based, Sclerotinia sclerotiorum; conditions: in as low concentrations as 0.0016 μg/ml, 3 to 6 days
# Description: as §1, §2, §3
# [7] = concentration 0.125 (unit not given)
# [8] = concentration 2 (unit not given)
# [9] = concentration 10 (unit not given)
compound,measurement,setting,value
"CC[C@H](C)[C@H]1C(=O)NCC(=O)N(C)[C@@H](C(C)C)C(=O)N[C@@H](Cc2ccc(OC)cc2)C(=O)O[C@H](C)C(=O)N2CCCC[C@H]2C(=O)N(C)[C@@H](C(C)C)C(=O)N[C@@H](C(C)C)C(=O)N(C)[C@@H](CC(=O)O)C(=O)N(C)[C@@H](C(C)C)C(=O)N1C [BK 202, cyclo- Pec-MeVal-Val-MeAsp-MeVal-MeIle-Gly-MeVal-TyrOMe-D-Lact!] (cyclo(G[NMeV]Y(Me)[dLac][Pip][NMeV]V[NMeD][NMeV][NMeI]))",inhibition of growth,V. inequalis,very strong
same,"growth, Isolate B",[1]; [7],0 mm
same,"growth, Isolate B",[1]; [8],0 mm
same,"growth, Isolate B",[1]; [9],0 mm
same,"growth, Isolate A",[2]; [7],0 mm
same,"growth, Isolate A",[2]; [8],0 mm
same,"growth, Isolate A",[2]; [9],0 mm
same,Ames spot tests,Ames spot tests,no indication of toxicity
same,inhibition of growth,M. fructigena,very strong
same,inhibition of growth,C. beticola,weaker
same,inhibition of growth,B. cinerea,very strong
same,"dermal irritation score, Skintex® test",[3],lowest possible irritation
same,fungicidal activity,Zygomycetous species,Only weak activity
same,fungicidal activity,Basidiornycetous species,practically no activity
same,fungicidal activity,Ascomycetous species,most active
same,stability at pH values above 8,[4]; 25°-55° C.,decreases rapidly
same,stability optimum (pH),"[4]; 25°-55° C., stability seems independent of temperature",~7
same,stability at pH values below 7,"[4]; except at 25° C., where the decrease seems rapid (possibly experimental error)",decreases slowly
same,attack from the fungus on tomato plants,Botrytis cinerea,No attack from the fungus was observed
same,inhibition of growth,F. lycopersici,weaker
same,number of infected wounds (maximum 20),Monilinia fructigena; 0.5 mg ai/l dip,18
same,number of infected wounds (maximum 20),Monilinia fructigena; 5.0 mg ai/l dip,14
same,number of infected wounds (maximum 20),Monilinia fructigena; 50 mg ai/l dip,7
same,number of infected wounds (maximum 20),Monilinia fructigena; 500 mg ai/l dip,1
same,activity towards M. fructigena in comparison to the two commercial fungicides tested,Monilinia fructigena; versus BENLATE® and ROVRAL®,superior
same,phytotoxic activity,plants,no phytotoxic activity has been observed
same,inhibition of growth,A. pisi,very strong
same,inhibition of growth,A. alternata,weaker
same,"growth, Isolate C",[5]; [7],0 mm
same,"growth, Isolate C",[5]; [8],0 mm
same,"growth, Isolate C",[5]; [9],0 mm
same,"IC50, Chemiluminescent",[6],> 10 µg/mL
same,fungicidal activity,Deuterornycetous species,most active
same,inhibition of growth,S. sclerotiorum,very strong
